Laboratory results taken from article PMC8847575, “HSL1 and BAM1/2 impact epidermal cell development by sensing distinct signaling peptides” (Nature Communications, 2022).
Ends that are not written are not given here.

Columns and labels:
HSL1 ectodomain = molecular target: T1, HSL1 ectodomain (Arabidopsis thaliana, UniProt Q9SGP2); assay: ITC, peptide titrated into isolated HSL1 ectodomain; conditions: peptide (syringe) into HSL1 ectodomain (cell), 25 °C, 20 mM sodium citrate pH 5.0, 150 mM NaCl, N fitted to 1, mean ± SD of at least two independent experiments, n.d = no binding detected
T1 construct: HSL1 (residues 17-618, AT1G28440); azurocidin or Drosophila BIP signal peptide (secretion signal) (N); made in house; host or cells: Trichoplusia ni Tnao38 insect cells (baculovirus)
T1 sequence (Q9SGP2 17-618): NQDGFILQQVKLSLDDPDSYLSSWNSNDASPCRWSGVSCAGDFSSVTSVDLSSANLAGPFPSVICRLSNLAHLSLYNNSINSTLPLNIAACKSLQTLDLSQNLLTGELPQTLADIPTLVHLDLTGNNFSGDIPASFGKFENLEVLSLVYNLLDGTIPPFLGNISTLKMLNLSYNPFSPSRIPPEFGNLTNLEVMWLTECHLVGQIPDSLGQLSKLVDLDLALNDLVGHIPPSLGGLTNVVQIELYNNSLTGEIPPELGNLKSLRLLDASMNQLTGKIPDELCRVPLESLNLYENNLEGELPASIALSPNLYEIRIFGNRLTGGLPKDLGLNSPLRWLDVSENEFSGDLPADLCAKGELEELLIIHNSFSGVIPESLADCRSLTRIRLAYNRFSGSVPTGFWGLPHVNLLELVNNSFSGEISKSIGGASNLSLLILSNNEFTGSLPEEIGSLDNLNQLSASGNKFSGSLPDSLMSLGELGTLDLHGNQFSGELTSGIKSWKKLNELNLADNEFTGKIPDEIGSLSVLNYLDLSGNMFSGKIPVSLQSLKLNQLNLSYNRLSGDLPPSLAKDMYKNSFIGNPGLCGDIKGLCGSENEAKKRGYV
Description: (§1) All genes used for protein expression in Trichoplusia ni Tnao38 cells[46] were codon optimized and cloned into a modified pFastBac vector (Geneva Biotech) providing an azurocidin[47] or Drosophila BIP signal peptide, a TEV (tobacco etch virus protease) cleavage site and a Strep-9xHis tandem affinity tag at their carboxy terminus. The genes used are coding for the Arabidopsis ectodomains of HSL1 (residues 17-618, AT1G28440), HAE (residues 20-620, AT4G28490) SERK1 (residues 24–213, AT1G71830), and BAM1 (residues 20–637, AT5G65700). To perform Grating-coupled interferometry (GCI) experiments, HSL1 was fused to a non-cleavable Avi-tag[49],[50]. […] After every expression round, secretion of our proteins was detected using an anti-His-HRP conjugated antibody from Roche (Ref:11965085001) in a 1:2000 dilution. […] Proteins were analyzed for purity and structural integrity by SDS-PAGE.
(§2) Experiments were performed at 25 °C using a MicroCal PEAQ-ITC (Malvern Instruments) with a 200 µL standard cell and a 40 μL titration syringe. […] Molar protein concentrations for HSL1, BAM1, and SERK1 were calculated using their molar extinction coefficient and a molecular weight of 74,896 and 27,551 Da, respectively as previously determined. […] Experiments were done in duplicates or triplicates, otherwise specified, and data were analyzed using the MicroCal PEAQ-ITC Analysis Software provided by the manufacturer. […]

HSL1-SERK1 complex = molecular target: T2, HSL1-SERK1 complex (Arabidopsis thaliana, UniProt Q94AG2+Q9SGP2); assay: ITC, SERK1 titrated into HSL1 plus peptide (ternary complex formation); conditions: SERK1 (syringe) into HSL1 + indicated peptide (cell), 25 °C, 20 mM sodium citrate pH 5.0, 150 mM NaCl, N fitted to 1, mean ± SD of at least two independent experiments, n.d = no binding detected
T2 construct: HSL1 (residues 17-618, AT1G28440); made in house; host or cells: Trichoplusia ni Tnao38 insect cells (baculovirus)
T2 sequence (Q9SGP2 17-618): T1 sequence (Q9SGP2 17-618)
T2 sequence (Q94AG2 24-213 partner limits assumed): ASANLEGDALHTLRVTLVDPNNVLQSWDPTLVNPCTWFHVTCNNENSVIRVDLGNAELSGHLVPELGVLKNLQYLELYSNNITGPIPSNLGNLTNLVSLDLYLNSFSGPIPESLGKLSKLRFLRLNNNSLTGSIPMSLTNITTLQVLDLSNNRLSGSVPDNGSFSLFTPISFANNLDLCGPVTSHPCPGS
Description: as §1, §2

Kd (dissociation constant), peptide vs HSL1 (HSL1 ectodomain): could not detect binding
Kd (dissociation constant), SERK1 vs HSL1 + peptide (HSL1-SERK1 complex): no biding was detected
Sequence: RLVPSGPNPLHH [CLE13]
